Series [1] is described as follows: Increasing effect on bone mass in OVX rats. Type of series: in vivo. As to the method: 2 k PEG-[Cys^35]-PTH(1-35) was studied for the increasing effect on bone mass in OVX rats as follows. […] These samples were divided into aliquots and stored at −80° C. until use.
Female SD-IGS rats at 7 weeks of age (Charles River Japan, Inc.) were used, 60 of which were ovariectomized (OVX) to remove both ovaries and 7 of which were sham-operated. After 2 weeks, the ovariectomized rats were measured for their body weight and divided into groups of 6 rats each such that the mean body weights of all groups were identical.
Each drug was given subcutaneously at a dose of 1 ml/kg on a 5 times-a-week basis for 4 weeks. On the last day of administration, the rats were housed in metabolic cages and 24-hour urine was collected from each rat. On the following day, after the rats were euthanized by exsanguination under anesthesia, an autopsy was performed to collect blood, lumbar vertebrae and femurs. The urine and blood were taken into tubes and centrifuged to collect the respective supernatants, which were stored at −20° C. until assayed for parameters. The lumbar vertebrae and right femurs were stored in 70% ethanol. The average bone density of the second to fifth lumbar vertebrae and the bone density of the right femur were measured using a dual X-ray bone mineral densitometer (DCS-600EX, ALOKA).

The next series has as its target T1, human PTH1 receptors (Homo sapiens, UniProt Q03431).
T1 construct: expressed in transfected cells; host or cells: HKRK-B7 and HKRK-B64 cells (derived from pig kidney LLC-PK1 cells)
T1 sequence (Q03431 27-593): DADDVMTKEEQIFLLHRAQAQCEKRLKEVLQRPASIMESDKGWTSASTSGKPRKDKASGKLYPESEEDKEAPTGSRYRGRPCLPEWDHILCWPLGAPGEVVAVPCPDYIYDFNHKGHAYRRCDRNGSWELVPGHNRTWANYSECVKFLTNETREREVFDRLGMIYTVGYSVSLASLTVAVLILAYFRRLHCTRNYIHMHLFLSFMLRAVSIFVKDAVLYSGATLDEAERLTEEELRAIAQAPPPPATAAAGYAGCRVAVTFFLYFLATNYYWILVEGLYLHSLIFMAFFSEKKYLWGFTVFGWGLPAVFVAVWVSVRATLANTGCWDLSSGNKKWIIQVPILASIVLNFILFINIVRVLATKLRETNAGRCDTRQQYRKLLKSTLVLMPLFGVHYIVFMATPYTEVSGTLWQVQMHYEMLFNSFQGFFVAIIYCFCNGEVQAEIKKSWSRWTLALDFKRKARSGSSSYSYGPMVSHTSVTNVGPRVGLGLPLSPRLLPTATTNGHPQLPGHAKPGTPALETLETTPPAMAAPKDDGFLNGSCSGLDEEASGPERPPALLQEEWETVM
Nature of the series: in vitro ability to produce cAMP, HKRK-B64 cells. Type of series: cell-based. To be noted: Table 2(2), n=2-3. The protocol: Each PEG-PTH sample was assayed for its ability to produce cAMP (indicative of the increasing effect of PTH on bone mass) as follows. HKRK-B7 and HKRK-B64 cells, genetically modified from pig kidney-derived LLC-PK1 cells to overexpress human PTH1 receptors at levels of about 1×10^6 and 9×10^4 receptors per cell, respectively, as well as EW29 cells expressing about 1.9×10^5 rat PTH1 receptors per cell (Takasu et al., J. Bone. Miner. Res. 14: 11-20, 1999) were grown in DMEM supplemented with 10% FBS, 1% penicillin and 1% streptomycin. These cells were seeded in 96-well plates at 1×10^5 cells/well and incubated overnight. On the following day, the cells were washed once with 200 μL binding buffer (50 mM Tris-HCl/100 mM NaCl/5 mM KCl/2 mM CaCl2/5% inactivated horse serum/0.5% inactivated bovine serum, pH 7.7), followed by addition of 100 μL cAMP assay buffer (DMEM/2 mM 3-isobutyl-1-methylxanthine/1 mg/mL bovine serum albumin/35 mM HEPES-NaOH, pH 7.4) on ice. […] After removing the reaction solution, the plates were placed on powdered dry ice to freeze the cells and then removed from the dry ice. The cells were thawed with 50 μL of 50 mM HCl and frozen again on dry ice. The level of intracellular cAMP was determined with a commercially available EIA kit (Biotrak cAMP EIA system, Amersham).

For series [2] the following is noted: clinical trial, cited from earlier work.

Where two headings read alike, the source gives them in different places.

These results are taken from patent US20050148763A1, “Peg-binding pth or peg-binding pth derivative” (Chugai Seiyaku Kabushiki Kaisha, priority 2002, published 2005).

As for “2 k PEG-[Cys^35]-hPTH(1-35): [Cys^35]-PTH(1-35) conjugated with mPEG 2 k-MAL (2 kDa methoxy-PEG-maleimide) at the C-terminal cysteine (SVSEIQLMHNLGKHLNSMERVEWLRKKLQDVHNFC; Parathyroid hormone 2 kDa mPEG-maleimide at Cys35; UniProt P01270 32-66, looked up, variant V35C)”, the “lumbar and femoral bone density, significance (in words)” value in series [1] (OVX rats, 7.5, 30 and 120 nmol/kg sc, 4 weeks) is “statistically-significant increases in both lumbar and femoral bone density”. In addition, the “lumbar and femoral bone density (in words)” value in series [1] (OVX rats, sc 5 times a week for 4 weeks) is “dose-dependent increases in lumbar and femoral bone density”. Moreover, the “Maximum cAMP response” value with human PTH1 receptors stood at 65.4 ± 19.4 pmol/well. For the same molecule, the EC50 – broadly, the concentration at which the effect is half-maximal – with human PTH1 receptors (cAMP production) stood at 0.6 nM.

In the case of `CC[C@H](C)[C@H](NC(=O)[C@H](CCC(=O)O)NC(=O)[C@H](CO)NC(=O)[C@@H](NC(=O)[C@@H](N)CO)C(C)C)C(=O)N[C@@H](CCC(N)=O)C(=O)N[C@@H](CC(C)C)C(=O)N[C@@H](CCSC)C(=O)N[C@@H](Cc1cnc[nH]1)C(=O)N[C@@H](CC(N)=O)C(=O)N[C@@H](CC(C)C)C(=O)NCC(=O)N[C@@H](CCCCN)C(=O)N[C@@H](Cc1cnc[nH]1)C(=O)N[C@@H](CC(C)C)C(=O)N[C@@H](CC(N)=O)C(=O)N[C@@H](CO)C(=O)N[C@@H](CCSC)C(=O)N[C@@H](CCC(=O)O)C(=O)N[C@@H](CCCN=C(N)N)C(=O)N[C@H](C(=O)N[C@@H](CCC(=O)O)C(=O)N[C@@H](Cc1c[nH]c2ccccc12)C(=O)N[C@@H](CC(C)C)C(=O)N[C@@H](CCCN=C(N)N)C(=O)N[C@@H](CCCCN)C(=O)N[C@@H](CCCCN)C(=O)N[C@@H](CC(C)C)C(=O)N[C@@H](CCC(N)=O)C(=O)N[C@@H](CC(=O)O)C(=O)N[C@H](C(=O)N[C@@H](Cc1cnc[nH]1)C(=O)N[C@@H](CC(N)=O)C(=O)N[C@@H](Cc1ccccc1)C(=O)O)C(C)C)C(C)C` [hPTH(1-34), reference compound], the “nausea and headache as side effects (in words)” value was “same frequency as observed in the placebo group” in series [2] (dose of 20 μg); “caused nausea and headache as side effects at a statistically significant level” in series [2] (dose of 40 μg).
